Data as given in ChEMBL document CHEMBL1201862, “PubChem BioAssay data set” (2004).
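A five-concentration, 48-hour dose response in 96-well plates underlies each endpoint, interpolated linearly between surrounding concentrations. GI50: concentration for 50% inhibition of growth.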 The source made the active and inactive calls. Cut-off read from the data, not from the text of the source: active = GI50 up to about 1.1 µM and inactive = higher.

Assays:
Experiment in all cases: NCI tumour cell line growth inhibition, 48 h
[1] = test system: UACC-62
[2] = test system: UACC-257
[3] = test system: NCI-H522
[4] = test system: SNB-75
[5] = test system: Malme-3M
[6] = test system: LOX IMVI
[7] = test system: OVCAR-3
[8] = test system: M14
[9] = test system: SW-620
[10] = test system: HOP-92
[11] = test system: HOP-62
[12] = test system: OVCAR-5
[13] = test system: SNB-19
[14] = test system: SF-539
[15] = test system: EKVX
[16] = test system: U-251
[17] = test system: CAKI-1

Measured: GI50

CCC1(N=[N+]=[N-])C(=O)c2ccccc2N(c2ccccc2)C1=O (stereo not drawn)
inactive: [1] > 100 µM | [2] > 100 µM | [3] > 100 µM | [4] > 100 µM | [5] > 100 µM | [6] > 100 µM | [7] > 100 µM | [8] > 100 µM | [9] > 100 µM | [10] > 100 µM | [11] > 100 µM | [12] > 100 µM | [13] > 100 µM | [14] > 100 µM | [15] > 100 µM | [16] > 100 µM | [17] > 100 µM

COC(=O)C1(C(=O)OC)CC2c3c(c4ccccc4n3C)CC(C1=O)N2Cc1ccccc1 (stereo not drawn)
inactive: [1] 89.9 µM | [2] > 100 µM | [3] 57.3 µM | [4] 15.4 µM | [5] > 100 µM | [6] > 100 µM | [7] > 100 µM | [8] > 100 µM | [9] > 100 µM | [10] > 100 µM | [11] > 100 µM | [12] > 100 µM | [13] > 100 µM | [14] > 100 µM | [15] > 100 µM | [16] > 100 µM | [17] > 100 µM

O=C(O)C(=O)/C=C\c1ccc(Cl)cc1
inactive: [1] > 100 µM | [2] > 100 µM | [3] > 100 µM | [4] > 100 µM | [5] > 100 µM | [6] > 100 µM | [7] > 100 µM | [8] > 100 µM | [9] 10.6 µM | [10] 80.9 µM | [11] > 100 µM | [12] > 100 µM | [13] > 100 µM | [14] > 100 µM | [15] > 100 µM | [16] 66.4 µM | [17] > 100 µM

N#Cc1c(N)oc2cc3c(C#N)c(N)oc3cc12
inactive: [1] > 100 µM | [2] > 100 µM | [3] > 100 µM | [4] 83.6 µM | [5] > 100 µM | [6] > 100 µM | [7] > 100 µM | [8] > 100 µM | [9] > 100 µM | [10] > 100 µM | [11] > 100 µM | [12] > 100 µM | [13] > 100 µM | [14] > 100 µM | [15] > 100 µM | [16] > 100 µM | [17] > 100 µM
